Here are results for twelve compounds from ChEMBL document CHEMBL2146461, “Synthesis and antiplasmodial activity of new heteroaryl derivatives of 7-chloro-4-aminoquinoline” (Bioorg Med Chem, 2012).

For orientation: logP means a log measure of how a compound divides between an organic and an aqueous phase. The term logD denotes lipophilicity at a set pH, counting ionised and neutral species. High values mean a more lipophilic compound, low ones a more hydrophilic compound.

System in the first series: not listed separately
Briefly: Lipophilicity, log P of the compound at pH 7.4. The class given is physicochemical. The conditions noted are these: buffer, read-out: logP.
Consider `Clc1ccc(-c2nc(CNc3ccnc4cc(Cl)ccc34)[nH]c2CN2CCCC2)cc1`, for which the log partition coefficient (logP) came out at 6.96.
Turning to `Clc1ccc2c(NCc3nc(-c4ccccc4)c(CN4CCCC4)[nH]3)ccnc2c1`, the logP worked out at 6.35.
Same read-out and setting: the same measure for `CN(C)c1ccc(-c2c[nH]c(CNc3ccnc4cc(Cl)ccc34)n2)cc1`: 5.07; for `Cc1ccc(-c2nc(CNc3ccnc4cc(Cl)ccc34)[nH]c2CN2CCCC2)cc1`: 6.45; for `Clc1ccc2c(NCc3nc(-c4ccccc4)c[nH]3)ccnc2c1`: 4.98.
Take `Clc1ccc2c(NCc3ncc(CN4CCCC4)[nH]3)ccnc2c1`: the lipophilicity (logP) was determined as 4.78.
On the same count and under the same terms, the same measure for `Clc1ccc2c(NCc3nc(-c4ccc(N5CCCC5)cc4)c[nH]3)ccnc2c1`: 8.87.

The next series concerns Plasmodium falciparum. Briefly: Ratio of chloroquine IC50 to compound IC50 for chloroquine-sensitive Plasmodium falciparum D10. The class given is functional.
Details: not given
`CCN(CC)Cc1ccc(Nc2ccnc3cc(Cl)ccc23)s1`: the “Ratio IC50” value is on record as 0.08.
`CCN(CC)Cc1cnc(CNc2ccnc3cc(Cl)ccc23)[nH]1`: the “Ratio IC50” value stood at 0.07.
Still for that read-out and setting: the same measure for `Clc1ccc(-c2nc(CNc3ccnc4cc(Cl)ccc34)[nH]c2CN2CCCC2)cc1`: 2; for `Clc1ccc2c(NCc3nc(-c4ccccc4)c(CN4CCCC4)[nH]3)ccnc2c1`: 0.71.
On to `CCN(CC)Cc1[nH]c(CNc2ccnc3cc(Cl)ccc23)nc1-c1ccccc1`, for which the “Ratio IC50” value turned out to be 0.58.
In the case of `CN(C)c1ccc(-c2c[nH]c(CNc3ccnc4cc(Cl)ccc34)n2)cc1`, the “Ratio IC50” value was determined as 0.82.
Still for that read-out and setting: the figure for `Cc1ccc(-c2nc(CNc3ccnc4cc(Cl)ccc34)[nH]c2CN2CCCC2)cc1` is 1.49; for `Clc1ccc2c(NCc3nc(-c4ccccc4)c[nH]3)ccnc2c1` it is 0.14; for `Clc1ccc2c(NCc3ncc(CN4CCCC4)[nH]3)ccnc2c1` it is 0.04.
Turning to `CCN(CC)Cc1[nH]c(CNc2ccnc3cc(Cl)ccc23)nc1-c1ccc(Cl)cc1`, the “Ratio IC50” value was determined as 1.25.
Still for that read-out and setting: the same measure for `Clc1ccc2c(NCc3nc(-c4ccc(N5CCCC5)cc4)c[nH]3)ccnc2c1`: 0.77.

System in a further series: not listed separately
Briefly: n-octanol-KCl distribution coefficient, log D of the compound at pH 7.4. The class given is physicochemical.
Details: not given
`Clc1ccc(-c2nc(CNc3ccnc4cc(Cl)ccc34)[nH]c2CN2CCCC2)cc1` gave a logD of 4.63.
For `Clc1ccc2c(NCc3nc(-c4ccccc4)c(CN4CCCC4)[nH]3)ccnc2c1`, the logD turned out to be 4.22.
Still for that read-out and setting: the figure for `CN(C)c1ccc(-c2c[nH]c(CNc3ccnc4cc(Cl)ccc34)n2)cc1` is 4.75; for `Cc1ccc(-c2nc(CNc3ccnc4cc(Cl)ccc34)[nH]c2CN2CCCC2)cc1` it is 4.
As to `Clc1ccc2c(NCc3nc(-c4ccccc4)c[nH]3)ccnc2c1`, the logD came out at 4.62.
The compound `Clc1ccc2c(NCc3ncc(CN4CCCC4)[nH]3)ccnc2c1` yielded a logD of 1.42.
On the same count and under the same terms, the same measure for `Clc1ccc2c(NCc3nc(-c4ccc(N5CCCC5)cc4)c[nH]3)ccnc2c1`: 8.53.

System in a further series: not listed separately
Briefly: Inhibition of beta-hematin formation assessed as ratio of drug to haemin for 50% inhibition by BHIA assay. The series is classed as functional.
Details: not given
For the compound `CCN(CC)CCCC(C)Nc1ccnc2cc(Cl)ccc12` (stereo not drawn) [CHLOROQUINE], the IC50 came to 1.94 molar ratio.
Consider `CN(C)c1ccc(-c2c[nH]c(CNc3ccnc4cc(Cl)ccc34)n2)cc1`, for which the IC50 worked out at 0.42 molar ratio.

A further series relates to Plasmodium falciparum. Briefly: Antiplasmodial activity against chloroquine-sensitive Plasmodium falciparum D10 infected in human red blood cells after 72 hrs by parasite lactate dehydrogenase assay. The series is classed as functional, organism-based. The note with it: D10, 72 h.
Regarding `CCN(CC)Cc1ccc(Nc2ccnc3cc(Cl)ccc23)s1`, the IC50 was found to be 1860 nM.
`CCN(CC)Cc1cnc(CNc2ccnc3cc(Cl)ccc23)[nH]1` displayed an IC50 of 191 nM.
As to `Clc1ccc(-c2nc(CNc3ccnc4cc(Cl)ccc34)[nH]c2CN2CCCC2)cc1`, the IC50 amounted to 5.5 nM.
Still for that read-out and setting: the same measure for `Clc1ccc2c(NCc3nc(-c4ccccc4)c(CN4CCCC4)[nH]3)ccnc2c1`: 22.9 nM; for `CCN(CC)Cc1[nH]c(CNc2ccnc3cc(Cl)ccc23)nc1-c1ccccc1`: 28 nM; for `CN(C)c1ccc(-c2c[nH]c(CNc3ccnc4cc(Cl)ccc34)n2)cc1`: 13.4 nM.
`Cc1ccc(-c2nc(CNc3ccnc4cc(Cl)ccc34)[nH]c2CN2CCCC2)cc1`: the IC50 came out at 7.4 nM.
In turn, `Clc1ccc2c(NCc3nc(-c4ccccc4)c[nH]3)ccnc2c1` displayed an IC50 of 116 nM.
In turn, `Clc1ccc2c(NCc3ncc(CN4CCCC4)[nH]3)ccnc2c1` yielded an IC50 of 399 nM.
`CCN(CC)Cc1[nH]c(CNc2ccnc3cc(Cl)ccc23)nc1-c1ccc(Cl)cc1` had an IC50 of 8.8 nM.
The compound `Clc1ccc2c(NCc3nc(-c4ccc(N5CCCC5)cc4)c[nH]3)ccnc2c1` yielded an IC50 of 18.2 nM.

The test system of the next series is Plasmodium falciparum. Briefly: Antiplasmodial activity against chloroquine-resistant Plasmodium falciparum W2 infected in human red blood cells after 72 hrs by parasite lactate dehydrogenase assay. The class given is functional, organism-based. The note with it: W2, 72 h.
Regarding `CCN(CC)Cc1ccc(Nc2ccnc3cc(Cl)ccc23)s1`, the IC50 was found to be 2580 nM.
For the compound `CCN(CC)Cc1cnc(CNc2ccnc3cc(Cl)ccc23)[nH]1`, the IC50 came to 3800 nM.
`Clc1ccc(-c2nc(CNc3ccnc4cc(Cl)ccc34)[nH]c2CN2CCCC2)cc1`: the IC50 turned out to be 27.2 nM.
Still for that read-out and setting: the figure for `Clc1ccc2c(NCc3nc(-c4ccccc4)c(CN4CCCC4)[nH]3)ccnc2c1` is 91.6 nM; for `CCN(CC)Cc1[nH]c(CNc2ccnc3cc(Cl)ccc23)nc1-c1ccccc1` it is 85.8 nM; for `CN(C)c1ccc(-c2c[nH]c(CNc3ccnc4cc(Cl)ccc34)n2)cc1` it is 20.9 nM.
Take `Cc1ccc(-c2nc(CNc3ccnc4cc(Cl)ccc34)[nH]c2CN2CCCC2)cc1`: the IC50 came out at 69.3 nM.
With `Clc1ccc2c(NCc3nc(-c4ccccc4)c[nH]3)ccnc2c1`, the IC50 is 85.1 nM.
For `Clc1ccc2c(NCc3ncc(CN4CCCC4)[nH]3)ccnc2c1`, the IC50 was determined as 3120 nM.
Same read-out and setting: the figure for `CCN(CC)Cc1[nH]c(CNc2ccnc3cc(Cl)ccc23)nc1-c1ccc(Cl)cc1` is 27.6 nM; for `Clc1ccc2c(NCc3nc(-c4ccc(N5CCCC5)cc4)c[nH]3)ccnc2c1` it is 35.3 nM.

The next series relates to Plasmodium falciparum. Briefly: Ratio of chloroquine IC50 to compound IC50 for chloroquine-resistant Plasmodium falciparum W2. The class given is functional.
Details: not given
Take `CCN(CC)Cc1ccc(Nc2ccnc3cc(Cl)ccc23)s1`: the “Ratio IC50” value came to 0.06.
For the compound `CCN(CC)Cc1cnc(CNc2ccnc3cc(Cl)ccc23)[nH]1`, the “Ratio IC50” value turned out to be 0.04.
For `Clc1ccc(-c2nc(CNc3ccnc4cc(Cl)ccc34)[nH]c2CN2CCCC2)cc1`, the “Ratio IC50” value is reported as 10.62.
Same read-out and setting: the same measure for `Clc1ccc2c(NCc3nc(-c4ccccc4)c(CN4CCCC4)[nH]3)ccnc2c1`: 1.67; for `CCN(CC)Cc1[nH]c(CNc2ccnc3cc(Cl)ccc23)nc1-c1ccccc1`: 1.78.
As for `CN(C)c1ccc(-c2c[nH]c(CNc3ccnc4cc(Cl)ccc34)n2)cc1`, the “Ratio IC50” value is 13.8.
`Cc1ccc(-c2nc(CNc3ccnc4cc(Cl)ccc34)[nH]c2CN2CCCC2)cc1`: the “Ratio IC50” value is reported as 4.17.
On the same count and under the same terms, the same measure for `Clc1ccc2c(NCc3nc(-c4ccccc4)c[nH]3)ccnc2c1`: 1.78; for `Clc1ccc2c(NCc3ncc(CN4CCCC4)[nH]3)ccnc2c1`: 0.05; for `CCN(CC)Cc1[nH]c(CNc2ccnc3cc(Cl)ccc23)nc1-c1ccc(Cl)cc1`: 10.47.
For `Clc1ccc2c(NCc3nc(-c4ccc(N5CCCC5)cc4)c[nH]3)ccnc2c1`, the “Ratio IC50” value was 12.22.

System in the next series: not listed separately
Briefly: Cytotoxicity against human HMEC1 cells after 72 hrs by MTT assay. The series is classed as cell-based. The conditions noted are these: HMEC-1, 72 h. On the technique in general: Formazan colour is commonly taken as a measure of viable cells.
Compound `CCN(CC)CCCC(C)Nc1ccnc2cc(Cl)ccc12` (stereo not drawn) [CHLOROQUINE] returned an IC50 of more than 38000 nM.
Consider `Clc1ccc(-c2nc(CNc3ccnc4cc(Cl)ccc34)[nH]c2CN2CCCC2)cc1`, for which the IC50 turned out to be 2060 nM.
On to `Clc1ccc2c(NCc3nc(-c4ccccc4)c(CN4CCCC4)[nH]3)ccnc2c1`, for which the IC50 worked out at 8660 nM.
`CCN(CC)Cc1[nH]c(CNc2ccnc3cc(Cl)ccc23)nc1-c1ccccc1` yielded an IC50 of 9140 nM.
`CN(C)c1ccc(-c2c[nH]c(CNc3ccnc4cc(Cl)ccc34)n2)cc1`: the IC50 amounted to 6670 nM.
`Cc1ccc(-c2nc(CNc3ccnc4cc(Cl)ccc34)[nH]c2CN2CCCC2)cc1` had an IC50 of 3660 nM.
Take `Clc1ccc2c(NCc3nc(-c4ccccc4)c[nH]3)ccnc2c1`: the IC50 amounted to 13100 nM.
Still for that read-out and setting: the same measure for `CCN(CC)Cc1[nH]c(CNc2ccnc3cc(Cl)ccc23)nc1-c1ccc(Cl)cc1`: 2440 nM; for `Clc1ccc2c(NCc3nc(-c4ccc(N5CCCC5)cc4)c[nH]3)ccnc2c1`: 2430 nM.

System in a further series: not listed separately
Briefly: Selectivity index, ratio of IC50 for human HMEC1 cells to IC50 for chloroquine-resistant Plasmodium falciparum W2. The class given is toxicity, cell-based. The note with it: read-out: Ratio IC50.
For `Clc1ccc(-c2nc(CNc3ccnc4cc(Cl)ccc34)[nH]c2CN2CCCC2)cc1`, the selectivity ratio is 76.
For the compound `Clc1ccc2c(NCc3nc(-c4ccccc4)c(CN4CCCC4)[nH]3)ccnc2c1`, the selectivity ratio turned out to be 95.
`CCN(CC)Cc1[nH]c(CNc2ccnc3cc(Cl)ccc23)nc1-c1ccccc1`: the selectivity ratio is 107.
Regarding `CN(C)c1ccc(-c2c[nH]c(CNc3ccnc4cc(Cl)ccc34)n2)cc1`, the selectivity ratio was determined as 320.
For the compound `Cc1ccc(-c2nc(CNc3ccnc4cc(Cl)ccc34)[nH]c2CN2CCCC2)cc1`, the selectivity ratio was 53.
Still for that read-out and setting: the same measure for `Clc1ccc2c(NCc3nc(-c4ccccc4)c[nH]3)ccnc2c1`: 154.
Take `CCN(CC)Cc1[nH]c(CNc2ccnc3cc(Cl)ccc23)nc1-c1ccc(Cl)cc1`: the selectivity ratio is 89.
As for `Clc1ccc2c(NCc3nc(-c4ccc(N5CCCC5)cc4)c[nH]3)ccnc2c1`, the selectivity ratio worked out at 69.

System in the next series: not listed separately
Briefly: Resistance index, ratio of IC50 for chloroquine-resistant Plasmodium falciparum W2 to IC50 for chloroquine-sensitive Plasmodium falciparum D10. The class given is functional.
Details: not given
For the compound `CCN(CC)Cc1ccc(Nc2ccnc3cc(Cl)ccc23)s1`, the Ratio IC50 worked out at 1.4.
For the compound `CCN(CC)Cc1cnc(CNc2ccnc3cc(Cl)ccc23)[nH]1`, the Ratio IC50 is 19.9.
On the same count and under the same terms, the figure for `Clc1ccc(-c2nc(CNc3ccnc4cc(Cl)ccc34)[nH]c2CN2CCCC2)cc1` is 4.9.
As for `Clc1ccc2c(NCc3nc(-c4ccccc4)c(CN4CCCC4)[nH]3)ccnc2c1`, the Ratio IC50 worked out at 4.
In the case of `CCN(CC)Cc1[nH]c(CNc2ccnc3cc(Cl)ccc23)nc1-c1ccccc1`, the Ratio IC50 is 3.1.
On the same count and under the same terms, the figure for `CN(C)c1ccc(-c2c[nH]c(CNc3ccnc4cc(Cl)ccc34)n2)cc1` is 1.6; for `Cc1ccc(-c2nc(CNc3ccnc4cc(Cl)ccc34)[nH]c2CN2CCCC2)cc1` it is 9.4; for `Clc1ccc2c(NCc3nc(-c4ccccc4)c[nH]3)ccnc2c1` it is 0.7.
Turning to `Clc1ccc2c(NCc3ncc(CN4CCCC4)[nH]3)ccnc2c1`, the Ratio IC50 is 7.8.
On to `CCN(CC)Cc1[nH]c(CNc2ccnc3cc(Cl)ccc23)nc1-c1ccc(Cl)cc1`, for which the Ratio IC50 stood at 3.1.
Turning to `Clc1ccc2c(NCc3nc(-c4ccc(N5CCCC5)cc4)c[nH]3)ccnc2c1`, the Ratio IC50 worked out at 1.9.
